Source: patent US10973857B2, “Mesenchymal stem cell and use thereof for treatment of muscle injury and muscle-associated diseases” (EXOSTEM BIOTEC LTD., priority 2016, dated 2021)

tested on: MyoD; assay: Myogenic priming of MSCs, MyoD-GFP reporter; assay type: cell-based, human; settings: Nanog mRNA transfection prior to co-culture (Protocol B); one day incubation with 5-AZA (Protocol C)
Text: In light of the ability of MSCs to induce muscle regeneration, reduce muscle fibrosis and increase engraftment via paracrine effects, a method of supplementing the therapeutic effect of MSCs was developed. This method, called “myogenic priming”, increased the cell's paracrine effects on muscle cells on the one hand and promoted the MSC's own differentiation to muscle cells on the other. This priming increased the ability of MSCs to differentiate into satellite cells that undergo asymmetric division and to myoblasts that fuse with existing muscle fibers and deliver dystrophin to the cells. It was hypothesized that inducing MyoD expression in the cells would be one method of priming. This was tested by culturing CH- and UC-MSCs containing a MyoD-GFP reporter, in trans-well plates with human muscle cells (Protocol A). In this way, the extracellular vesicles and secreted factors from the muscle cells were able to contact the MSCs. A 3-day incubation resulting in a greater than 2-fold increase in MyoD expression as compared to control cells that had not be exposed to muscle cells (FIG. 3).
In addition to co-cultures with muscle cells, various methods were employed that would induced transient stem cell characteristics in MSCs to increase their muscle differentiation abilities in response to subsequent factors. […]

Molecule | myoD expression
Nc1ncn([C@@H]2O[C@H](CO)[C@@H](O)[C@H]2O)c(=O)n1 [5-azacytidine] | increased

tested on: MSCs; assay: Priming of MSCs to a stem cell phenotype (Protocols D and E); assay type: cell-based; settings: 24 hours, followed by media with a pH of about 6 for 1 hour or hypoxia for 24 hours (Protocol D)
Description: These incubations were also performed after first transfecting the MSCs with the modified Nanog mRNA.

Molecule | primed stem cell phenotype in MSCs
C[C@@H](N)[C@H]1CC[C@H](C(=O)Nc2ccncc2)CC1 [Y-27632] | induced a primed stem cell phenotype

same assay, conditions: incubation for 1-6 days (Protocol E)

Molecule | priming of MSCs
N[C@@H]1C[C@H]1c1ccccc1 (racemic) [tranylcypromine] | primed the MSCs to a degree
Nc1nccc2c1ncn2[C@@H]1C=C(CO)[C@@H](O)[C@H]1O [3-deazaneplanocin A] | primed the MSCs to a degree
O=C(NCc1ccccc1)c1csc(Nc2ccncn2)n1 [Thiazovivin] | primed the MSCs to a degree
Cc1c[nH]c(-c2cnc(NCCNc3ccc(C#N)cn3)nc2-c2ccc(Cl)cc2Cl)n1 [CHIR99021] | primed the MSCs to a degree
O=c1c(O)c(-c2ccc(O)c(O)c2)oc2cc(O)ccc12 [fistein] | primed the MSCs to a degree
Oc1ccc(C=Cc2cc(O)cc(O)c2)cc1 [resveratrol] | primed the MSCs to a degree
CN(C)C(=N)N=C(N)N [metformin] | primed the MSCs to a degree
Cc1cccc(-c2nn(C(=S)Nc3ccccc3)cc2-c2ccnc3ccccc23)n1 [A83-01] | primed the MSCs to a degree
Cc1cccc(-c2[nH]ncc2-c2ccc3ncccc3n2)n1 [RepSox] | primed the MSCs to a degree
CC(C)n1nc(-c2cc3cc(O)ccc3[nH]2)c2c(N)ncnc21 [PP242] | primed the MSCs to a degree
NC(=O)c1ccc(-c2nc(-c3ccc4c(c3)OCO4)c(-c3ccccn3)[nH]2)cc1 [SB431542] | primed the MSCs to a degree
[Cl-].[Li+] [LiCl] | primed the MSCs to a degree
CCCC(CCC)C(=O)O [valporic acid] | primed the MSCs to a degree

tested on: MSCs; assay: Protocol 3 differentiation of MSCs to hybrid cells with growth factors; assay type: cell-based; settings: individually and in combination, as replacements or in combination with HGF and PDGF
Description: A shortened third protocol (Protocol 3) was examined and was also found to produce MSC-muscle cell hybrid cells. The MSCs were cultured in normal MSC culturing conditions followed by supplementation of the media for 24 hours with 5-AZA. The cells were than grown in media supplemented with 2% horse serum and HGF and PDGF for 2 weeks. […] The following growth factors were tested both individually and in combination as replacements or in combination with HGF and PDGF: EGF, IGF1, PDGFAA, PDGFBB, and VEGF. […] Additionally, the protocol could be halted by moving the treated MSCs to non-supplemented MSC media. Hybrid cells that were produced could thus be halted from further differentiation.
All three protocols were also performed with MSCs that had first undergone myogenic priming as described above.

Molecule | production of hybrid cells from MSCs
PDGFAA: growth factor | found to produce hybrid cells
VEGF | found to produce hybrid cells
IGF1: growth factor | found to produce hybrid cells
